± gives the expanded uncertainty stated by the source.
Assay: mn = molality of the nth substance listed, in mol/kg
Settings: 101.3 kPa, Liquid

N[C@@H](CCC(=O)[O-])C(=O)O.[Na+] [sodium (S)-2-amino-4-carboxybutanoate] + O
speed of sound [m/s]
Settings	278.15 K	288.15 K	298.15 K
Frequency=2 MHz, Linear variable-path acoustic interferometer, m1 = 0.0467	1433.6 ± 1.7	–	–
Frequency=2 MHz, Linear variable-path acoustic interferometer, m1 = 0.0724	1437.7 ± 1.7	–	–
Frequency=2 MHz, Linear variable-path acoustic interferometer, m1 = 0.091	1441 ± 1.7	–	–
Frequency=2 MHz, Linear variable-path acoustic interferometer, m1 = 0.1095	1442.8 ± 1.7	–	–
Frequency=2 MHz, Linear variable-path acoustic interferometer, m1 = 0.1355	1446.8 ± 1.8	–	–
Frequency=2 MHz, Linear variable-path acoustic interferometer, m1 = 0.163	1451.4 ± 1.8	–	–
Frequency=2 MHz, Linear variable-path acoustic interferometer, m1 = 0.1906	1455.3 ± 1.8	–	–
Frequency=2 MHz, Linear variable-path acoustic interferometer, m1 = 0.2075	1458.8 ± 1.9	–	–
Frequency=2 MHz, Linear variable-path acoustic interferometer, m1 = 0.2251	1461.7 ± 1.8	–	–
Frequency=2 MHz, Linear variable-path acoustic interferometer, m1 = 0.2436	1464 ± 1.9	–	–
Frequency=2 MHz, Linear variable-path acoustic interferometer, m1 = 0.2705	1468.1 ± 2	–	–
Frequency=2 MHz, Linear variable-path acoustic interferometer, m1 = 0.2895	1471.7 ± 2	–	–
Frequency=2 MHz, Linear variable-path acoustic interferometer, m1 = 0.302	1473.6 ± 2	–	–
Frequency=3 MHz, Sing-around technique in a fixed-path interferometer, m1 = 0.0469	–	1472.9 ± 1.2	1502.5 ± 1.2
Frequency=3 MHz, Sing-around technique in a fixed-path interferometer, m1 = 0.072	–	1476.6 ± 1.2	1505.8 ± 1.2
Frequency=3 MHz, Sing-around technique in a fixed-path interferometer, m1 = 0.0904	–	1478.9 ± 1.2	1508.2 ± 1.2
Frequency=3 MHz, Sing-around technique in a fixed-path interferometer, m1 = 0.1082	–	1481.3 ± 1.3	1510.5 ± 1.3
Frequency=3 MHz, Sing-around technique in a fixed-path interferometer, m1 = 0.1368	–	1485.6 ± 1.3	1514.4 ± 1.3
Frequency=3 MHz, Sing-around technique in a fixed-path interferometer, m1 = 0.1628	–	1489.3 ± 1.3	1517.9 ± 1.3
Frequency=3 MHz, Sing-around technique in a fixed-path interferometer, m1 = 0.19	–	1492.9 ± 1.3	1521.3 ± 1.3
Frequency=3 MHz, Sing-around technique in a fixed-path interferometer, m1 = 0.2089	–	1495.3 ± 1.3	1523.6 ± 1.3
Frequency=3 MHz, Sing-around technique in a fixed-path interferometer, m1 = 0.2289	–	1497.5 ± 1.4	1525.8 ± 1.3
Frequency=3 MHz, Sing-around technique in a fixed-path interferometer, m1 = 0.2441	–	1499.7 ± 1.5	1527.8 ± 1.4
Frequency=3 MHz, Sing-around technique in a fixed-path interferometer, m1 = 0.264	–	1503.2 ± 1.5	1531.1 ± 1.4
Frequency=3 MHz, Sing-around technique in a fixed-path interferometer, m1 = 0.2916	–	1506.7 ± 1.4	1533.9 ± 1.4
Frequency=3 MHz, Sing-around technique in a fixed-path interferometer, m1 = 0.316	–	1509 ± 1.4	1537 ± 1.5

mass density [kg/m3]
Settings	278.15 K	288.15 K	298.15 K
Pycnometric method, m1 = 0.0467	1004.22 ± 0.29	–	–
Pycnometric method, m1 = 0.0724	1006.57 ± 0.31	–	–
Pycnometric method, m1 = 0.091	1008.26 ± 0.32	–	–
Pycnometric method, m1 = 0.1095	1009.79 ± 0.35	–	–
Pycnometric method, m1 = 0.1355	1012.41 ± 0.38	–	–
Pycnometric method, m1 = 0.163	1014.89 ± 0.41	–	–
Pycnometric method, m1 = 0.1906	1017.32 ± 0.44	–	–
Pycnometric method, m1 = 0.2075	1018.82 ± 0.46	–	–
Pycnometric method, m1 = 0.2251	1020.29 ± 0.5	–	–
Pycnometric method, m1 = 0.2436	1022.15 ± 0.5	–	–
Pycnometric method, m1 = 0.2705	1024.19 ± 0.55	–	–
Pycnometric method, m1 = 0.2895	1026.12 ± 0.66	–	–
Pycnometric method, m1 = 0.302	1027.42 ± 0.69	–	–
Vibrating tube method, m1 = 0.0469	–	1003.34 ± 0.14	1001.22 ± 0.14
Vibrating tube method, m1 = 0.072	–	1005.66 ± 0.17	1003.48 ± 0.17
Vibrating tube method, m1 = 0.0904	–	1007.29 ± 0.19	1005.08 ± 0.19
Vibrating tube method, m1 = 0.1082	–	1008.87 ± 0.22	1006.62 ± 0.21
Vibrating tube method, m1 = 0.1368	–	1011.34 ± 0.26	1009.04 ± 0.26
Vibrating tube method, m1 = 0.1628	–	1013.63 ± 0.31	1011.28 ± 0.3
Vibrating tube method, m1 = 0.19	–	1016.04 ± 0.35	1013.63 ± 0.34
Vibrating tube method, m1 = 0.2089	–	1017.65 ± 0.37	1015.21 ± 0.36
Vibrating tube method, m1 = 0.2289	–	1019.31 ± 0.4	1016.84 ± 0.39
Vibrating tube method, m1 = 0.2441	–	1020.63 ± 0.43	1018.13 ± 0.42
Vibrating tube method, m1 = 0.264	–	1022.32 ± 0.46	1019.79 ± 0.46
Vibrating tube method, m1 = 0.2916	–	1024.67 ± 0.5	1022.11 ± 0.49
Vibrating tube method, m1 = 0.316	–	1026.69 ± 0.53	1024.08 ± 0.52

Reference: the NIST ThermoML archive (doi:10.1016/j.jct.2015.09.020)
